In ChEMBL document CHEMBL1201862, “PubChem BioAssay data set” (2004):
Where a name gives a salt, the structure may show the parent alone.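 Compound exposure: 48 hours, 5 concentrations, 96-well plates. GI50 marks 50% less growth.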 The source made the active and inactive calls. Rule as the data show it: active = GI50 up to about 1.1 µM and inactive = higher.

Tests used:
Assay in all cases: NCI-60 cell line screen, 48 h
HCT-116 = test system: HCT-116
HL-60 = test system: HL-60
K562 = test system: K562
MDA-MB-231 = test system: MDA-MB-231
Malme-3M = test system: Malme-3M
NCI-H226 = test system: NCI-H226
NCI-H460 = test system: NCI-H460
NCI/ADR-RES = test system: NCI/ADR-RES
OVCAR-8 = test system: OVCAR-8
SK-MEL-28 = test system: SK-MEL-28
SK-MEL-2 = test system: SK-MEL-2
SK-MEL-5 = test system: SK-MEL-5
SNB-19 = test system: SNB-19
SR = test system: SR
SW-620 = test system: SW-620
T47D = test system: T47D
TK-10 = test system: TK-10
UACC-62 = test system: UACC-62
HCC 2998 = test system: HCC 2998

Compound | GI50 (HCT-116) | GI50 (HL-60) | GI50 (K562) | GI50 (MDA-MB-231) | GI50 (Malme-3M) | GI50 (NCI-H226) | GI50 (NCI-H460) | GI50 (NCI/ADR-RES) | GI50 (OVCAR-8) | GI50 (SK-MEL-28) | GI50 (SK-MEL-2) | GI50 (SK-MEL-5) | GI50 (SNB-19) | GI50 (SR) | GI50 (SW-620) | GI50 (T47D) | GI50 (TK-10) | GI50 (UACC-62) | GI50 (HCC 2998)
COc1ccc(N(CC(=O)O)N=O)cc1 | > 100 µM (inactive) | > 100 µM (inactive) | > 100 µM (inactive) | > 100 µM (inactive) | > 100 µM (inactive) | > 100 µM (inactive) | > 100 µM (inactive) | > 100 µM (inactive) | > 100 µM (inactive) | > 100 µM (inactive) | > 100 µM (inactive) | > 100 µM (inactive) | > 100 µM (inactive) | > 100 µM (inactive) | > 100 µM (inactive) | > 100 µM (inactive) | > 100 µM (inactive) | > 100 µM (inactive) | 
NCCCN1CCN(c2ccccc2)CC1 | > 100 µM (inactive) |  | > 100 µM (inactive) | > 100 µM (inactive) | > 100 µM (inactive) | > 100 µM (inactive) | > 100 µM (inactive) | > 100 µM (inactive) | > 100 µM (inactive) | > 100 µM (inactive) | > 100 µM (inactive) | > 100 µM (inactive) | > 100 µM (inactive) | 34.3 µM (inactive) |  | > 100 µM (inactive) | > 100 µM (inactive) | 70 µM (inactive) | 
Clc1ccccc1NN(Cc1ccccn1)c1ccccc1Cl | 14 µM (inactive) | 18.5 µM (inactive) | 17.3 µM (inactive) | 23.4 µM (inactive) | 19 µM (inactive) | 16.2 µM (inactive) |  | 16.7 µM (inactive) | 21.2 µM (inactive) | 20.5 µM (inactive) | 17.1 µM (inactive) | 14.5 µM (inactive) | 27.9 µM (inactive) | 13.4 µM (inactive) | 17.7 µM (inactive) | 27.4 µM (inactive) |  | 16.7 µM (inactive) | 
O=C1C(c2c(O)[nH]c3ccc(I)cc23)=Nc2ccccc21 | 1.67 µM (inactive) | > 100 µM (inactive) | 9.66 µM (inactive) | 2.65 µM (inactive) | 8.17 µM (inactive) | 2.55 µM (inactive) | 10.4 µM (inactive) | 6 µM (inactive) | 2.15 µM (inactive) | 11.2 µM (inactive) | 3.78 µM (inactive) | 2.57 µM (inactive) | 4.95 µM (inactive) | 10.8 µM (inactive) | 13.2 µM (inactive) | 3.51 µM (inactive) | 4.54 µM (inactive) | 4.66 µM (inactive) | 
FC(F)(F)c1ccc2nc(Sc3ccc4ccccc4c3)cnc2c1 | 46 µM (inactive) | 31.6 µM (inactive) | 45.8 µM (inactive) | 62.7 µM (inactive) | > 100 µM (inactive) | 87.9 µM (inactive) | 73.1 µM (inactive) | 60 µM (inactive) | > 100 µM (inactive) | > 100 µM (inactive) | 23.1 µM (inactive) | 28.1 µM (inactive) | > 100 µM (inactive) |  | 77.4 µM (inactive) | 23.1 µM (inactive) | > 100 µM (inactive) | 64.9 µM (inactive) | 52 µM (inactive)
c1ccc(C(CCN2CC3CCC(CC3)C2)c2ccccc2)cc1 | 20.1 µM (inactive) |  | 18.4 µM (inactive) | 18.9 µM (inactive) | 16.3 µM (inactive) | 19.6 µM (inactive) | 15 µM (inactive) | 23.8 µM (inactive) | 28.6 µM (inactive) | 41.1 µM (inactive) | 20.5 µM (inactive) | 16.5 µM (inactive) | 34.4 µM (inactive) | 19.7 µM (inactive) | 29.9 µM (inactive) | 20 µM (inactive) | 23.1 µM (inactive) | 17.1 µM (inactive) | 
COc1ccc(C(=O)O[C@@H]2CCN3CC[C@H](C)[C@H]23)cc1 | > 100 µM (inactive) | > 100 µM (inactive) |  | > 100 µM (inactive) |  | > 100 µM (inactive) | > 100 µM (inactive) | > 100 µM (inactive) | > 100 µM (inactive) | > 100 µM (inactive) | > 100 µM (inactive) | > 100 µM (inactive) | > 100 µM (inactive) | > 100 µM (inactive) | > 100 µM (inactive) | > 100 µM (inactive) | > 100 µM (inactive) | > 100 µM (inactive) | 
CN1CCN(c2ccc(-n3cc(C(=O)O)c(=O)c4cc(F)c(N5CCN(C)CC5)cc43)nc2)CC1 | 69.3 µM (inactive) | > 100 µM (inactive) | 62.8 µM (inactive) | > 100 µM (inactive) | 95.5 µM (inactive) | > 100 µM (inactive) | > 100 µM (inactive) | > 100 µM (inactive) | 85.1 µM (inactive) | > 100 µM (inactive) |  |  | > 100 µM (inactive) | > 100 µM (inactive) | 56.2 µM (inactive) | > 100 µM (inactive) | > 100 µM (inactive) | > 100 µM (inactive) | 
COc1ccc(C(F)(F)F)cc1NC(=O)O/N=C(/Cl)C(C)C | 16.4 µM (inactive) | 2.76 µM (inactive) | 1.91 µM (inactive) | 19.4 µM (inactive) | 9.62 µM (inactive) | 17.7 µM (inactive) | 37.6 µM (inactive) | 23.6 µM (inactive) | 21.9 µM (inactive) | 21.4 µM (inactive) | 18.8 µM (inactive) | 10.7 µM (inactive) | 18.7 µM (inactive) |  | 3.33 µM (inactive) | 20 µM (inactive) | 15.1 µM (inactive) | 18.5 µM (inactive) | 19.9 µM (inactive)
CC1=CC(=O)N(n2c(Cc3ccccc3)n[nH]c2=O)C1=O | > 100 µM (inactive) |  | 71.9 µM (inactive) | > 100 µM (inactive) | > 100 µM (inactive) | > 100 µM (inactive) | > 100 µM (inactive) | > 100 µM (inactive) | > 100 µM (inactive) |  | > 100 µM (inactive) | > 100 µM (inactive) | > 100 µM (inactive) | 72.6 µM (inactive) | 83.9 µM (inactive) | 98.4 µM (inactive) | > 100 µM (inactive) | > 100 µM (inactive) | > 100 µM (inactive)
COc1ccc2sc(-n3nc4ccccc4c3Nc3nc4ccc(OC)cc4s3)nc2c1 | 1.8 µM (inactive) |  | 1.59 µM (inactive) | 2.07 µM (inactive) | 3.8 µM (inactive) | 2.9 µM (inactive) | 2.22 µM (inactive) | 2.26 µM (inactive) | 1.29 µM (inactive) | 7.67 µM (inactive) | 15 µM (inactive) | 2.26 µM (inactive) | 2.33 µM (inactive) | 23.4 µM (inactive) | 7.5 µM (inactive) | 1 µM (active) | 2.62 µM (inactive) | 2.95 µM (inactive) | 1.43 µM (inactive)
OC(C/C=N/Nc1ccccc1)(C(F)(F)Cl)C(F)(F)Cl | 5.15 µM (inactive) | > 10 µM (inactive) | 9.46 µM (inactive) | 4 µM (inactive) | > 10 µM (inactive) | 7.38 µM (inactive) | 5.53 µM (inactive) | > 10 µM (inactive) | > 10 µM (inactive) | > 10 µM (inactive) | > 10 µM (inactive) | > 10 µM (inactive) | > 10 µM (inactive) |  | > 10 µM (inactive) | 7.53 µM (inactive) | > 10 µM (inactive) | > 10 µM (inactive) | 4.12 µM (inactive)
NC1=CN(CCCO)C2=N/C(=C\c3ccccc3)C(=O)N12 | > 100 µM (inactive) | 42.9 µM (inactive) | > 100 µM (inactive) | > 100 µM (inactive) | > 100 µM (inactive) | > 100 µM (inactive) | > 100 µM (inactive) | > 100 µM (inactive) | > 100 µM (inactive) | > 100 µM (inactive) | > 100 µM (inactive) | > 100 µM (inactive) | > 100 µM (inactive) |  | > 100 µM (inactive) | > 100 µM (inactive) | > 100 µM (inactive) | > 100 µM (inactive) | > 100 µM (inactive)
Cc1ccc(/N=N/C(=N/c2ccccc2)c2ccc(N(CCC#N)CCC#N)cc2)cc1 | 32.9 µM (inactive) |  | 47.3 µM (inactive) | 22.1 µM (inactive) |  | 27.7 µM (inactive) | 20.1 µM (inactive) | > 100 µM (inactive) | 26.1 µM (inactive) | 39.8 µM (inactive) | 19.7 µM (inactive) | 22.9 µM (inactive) | 37.5 µM (inactive) | 27.9 µM (inactive) | 45.6 µM (inactive) | 23.7 µM (inactive) | 27.2 µM (inactive) | 21.8 µM (inactive) | 19.4 µM (inactive)
Nc1ccc(-c2nc3cc(F)ccc3s2)cc1I | 18.5 µM (inactive) | > 100 µM (inactive) | > 77.3 µM (inactive) | 13.6 µM (inactive) | 26.1 µM (inactive) | 0.979 µM (active) | 0.0276 µM (active) | 18.8 µM (inactive) | 19.1 µM (inactive) | 52.7 µM (inactive) | 20.2 µM (inactive) | 21.7 µM (inactive) | 21.1 µM (inactive) |  | 27.5 µM (inactive) | 0.0658 µM (active) | 0.0351 µM (active) | 19.6 µM (inactive) | < 0.01 µM (active)
OC(CNc1ccccn1)c1ccccc1 (configuration not stated) [PHENYRAMIDOL HYDROCHLORIDE] | > 100 µM (inactive) | > 100 µM (inactive) | 85.5 µM (inactive) | > 100 µM (inactive) | > 100 µM (inactive) | > 100 µM (inactive) | > 100 µM (inactive) | > 100 µM (inactive) | > 100 µM (inactive) | > 100 µM (inactive) | > 100 µM (inactive) | > 100 µM (inactive) | > 100 µM (inactive) |  | > 100 µM (inactive) | > 100 µM (inactive) | > 100 µM (inactive) | > 100 µM (inactive) | > 100 µM (inactive)
